# According to patent publication US8030300B2, “Ligands for nicotinic acetylcholine receptors, and methods of making and using them” (priority 2003, dated 2011):
# Where two headings read alike, the source gives them in different places.
# Experiments:
# Assay in all cases: biochemical
# Type in all cases: binding
# α3β2 nAChR subtype = biological target: T1, α3β2 nAChR subtype (Rattus norvegicus, UniProt P04757+P12390)
# T1 construct: expressed in transfected cells
# Source text: (§1) In order to assess the steric and hydropathic effects of the C-5 substituents of the pyridine on the binding affinity and subtype-selectivity at neuronal nicotinic acetylcholine receptors. […] The binding affinity ratios for a ligand, calculated from its affinities at an α subunit paired with either the β2 osubunit or the β4 subunit, represents a measure of the selectivity of that ligand with regard to the β subunits.
# α4β2 nAChR subtype = biological target: T2, α4β2 nAChR subtype (Rattus norvegicus, UniProt P09483+P12390)
# T2 construct: expressed in transfected cells
# Source text: as §1
# α2β4 nAChR subtype = biological target: T3, α2β4 nAChR subtype (Rattus norvegicus, UniProt P12389+P12392)
# T3 construct: expressed in transfected cells
# Source text: as §1
# α4β4 nAChR subtype = biological target: T4, α4β4 nAChR subtype (Rattus norvegicus, UniProt P09483+P12392)
# T4 construct: expressed in transfected cells
# Source text: as §1
# α3β4 nAChR subtype = biological target: T5, α3β4 nAChR subtype (Rattus norvegicus, UniProt P04757+P12392)
# T5 construct: expressed in transfected cells
# Source text: as §1
# α2β2 nAChR subtype = biological target: T6, α2β2 nAChR subtype (Rattus norvegicus, UniProt P12389+P12390)
# T6 construct: expressed in transfected cells
# Source text: as §1
# [1] = biological target: T7, receptors in rat forebrain (mainly α4β2) (Rattus norvegicus, UniProt P09483+P12390)
# T7 construct: from tissue; host or cells: rat forebrain homogenate
# Source text: as §1
# In Vitro Inhibition of ^3H-Epibatidin Binding
# The high affinity binding site for ^3H-epibatidin is most certainly binding to the α4β2 subtype of nicotinic receptors. The identity of the low affinity site is still believed to be unknown.
# Tissue preparation: Preparations may be performed at 0-4° C. unless otherwise indicated. […] The tissue suspension may then be centrifuged at 27,000×g for 10 min. The supernatant is then discarded and the pellet may then be washed three times by centrifugation at 27,000×g for 10 min in 20 mL fresh buffer, and the final pellet may be resuspended in fresh buffer (400 mL per g of original tissue) and used for binding assays.
# Assay: Aliquots of 2.0 mL homogenate may be added to 0.100 mL of test solution and 0.100 mL of ^3H-epibatidin (0.3 nM, final concentration), mixed and incubated for 60 min at room temperature. […] The amount of radioactivity on the filters may be determined by conventional liquid scintillation counting. Specific binding is total binding minus non-specific binding.
# [2] = Table 5, rat nAChR subtypes, read-out: Ki α2β4
# [3] = Table 5, rat nAChR subtypes, read-out: Ki α4β4
# [4] = Table 5, rat nAChR subtypes, read-out: Ki α3β4
# [5] = Table 5, rat nAChR subtypes, read-out: Ki α2β2
# [6] = Ki α3β2, Table 5, rat nAChR subtypes
# [7] = Ki α4β2, Table 5, rat nAChR subtypes
# [8] = Ki α2β4, Table 5, rat nAChR subtypes
# [9] = Ki α4β4, Table 5, rat nAChR subtypes
# [10] = Ki α3β4, Table 5, rat nAChR subtypes
# [11] = Ki α2β2, Table 5, rat nAChR subtypes
# [12] = Ki α4β2*, Table 5, *Rat forebrain, mainly α4β2
# [13] = Table 3, mean ± SEM of 3 (nicotine, 1: 3 to 6) independent measurements, read-out: Ki α3β2
# [14] = Table 3, mean ± SEM of 3 (nicotine, 1: 3 to 6) independent measurements, read-out: Ki α4β2
# [15] = Table 3, mean ± SEM of 3 (nicotine, 1: 3 to 6) independent measurements, read-out: Ki α2β4
# [16] = Table 3, mean ± SEM of 3 (nicotine, 1: 3 to 6) independent measurements, read-out: Ki α4β4
# [17] = Table 3, mean ± SEM of 3 (nicotine, 1: 3 to 6) independent measurements, read-out: Ki α3β4
# [18] = Table 3, mean ± SEM of 3 (nicotine, 1: 3 to 6) independent measurements, read-out: Ki α2β2
# [19] = Ki α3β2, Table 1, mean of 3 (1, 2: 3 to 6) independent measurements
# [20] = Ki α4β2, Table 1, mean of 3 (1, 2: 3 to 6) independent measurements
# [21] = Ki α2β4, Table 1, mean of 3 (1, 2: 3 to 6) independent measurements
# [22] = Ki α4β4, Table 1, mean of 3 (1, 2: 3 to 6) independent measurements
# [23] = Ki α3β4, Table 1, mean of 3 (1, 2: 3 to 6) independent measurements
# [24] = Ki α2β2, Table 1, mean of 3 (1, 2: 3 to 6) independent measurements
# [25] = Ki Rat forebrain, Table 1, mean of 3 (1, 2: 3 to 6) independent measurements
# T5 sequence (P04757 26-499): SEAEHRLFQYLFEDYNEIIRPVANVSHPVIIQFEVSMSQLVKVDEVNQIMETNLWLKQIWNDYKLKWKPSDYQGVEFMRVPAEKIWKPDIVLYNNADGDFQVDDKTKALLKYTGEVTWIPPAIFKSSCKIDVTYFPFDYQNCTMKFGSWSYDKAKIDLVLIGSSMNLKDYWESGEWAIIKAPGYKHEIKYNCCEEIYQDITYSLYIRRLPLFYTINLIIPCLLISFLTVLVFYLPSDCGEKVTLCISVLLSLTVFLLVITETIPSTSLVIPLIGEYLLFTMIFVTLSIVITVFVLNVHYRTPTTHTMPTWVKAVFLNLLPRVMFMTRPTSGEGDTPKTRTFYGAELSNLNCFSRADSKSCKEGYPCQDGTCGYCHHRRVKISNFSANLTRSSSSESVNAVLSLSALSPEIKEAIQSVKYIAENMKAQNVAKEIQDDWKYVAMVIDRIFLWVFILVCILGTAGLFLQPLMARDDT
# T5 sequence (P12392 21-495): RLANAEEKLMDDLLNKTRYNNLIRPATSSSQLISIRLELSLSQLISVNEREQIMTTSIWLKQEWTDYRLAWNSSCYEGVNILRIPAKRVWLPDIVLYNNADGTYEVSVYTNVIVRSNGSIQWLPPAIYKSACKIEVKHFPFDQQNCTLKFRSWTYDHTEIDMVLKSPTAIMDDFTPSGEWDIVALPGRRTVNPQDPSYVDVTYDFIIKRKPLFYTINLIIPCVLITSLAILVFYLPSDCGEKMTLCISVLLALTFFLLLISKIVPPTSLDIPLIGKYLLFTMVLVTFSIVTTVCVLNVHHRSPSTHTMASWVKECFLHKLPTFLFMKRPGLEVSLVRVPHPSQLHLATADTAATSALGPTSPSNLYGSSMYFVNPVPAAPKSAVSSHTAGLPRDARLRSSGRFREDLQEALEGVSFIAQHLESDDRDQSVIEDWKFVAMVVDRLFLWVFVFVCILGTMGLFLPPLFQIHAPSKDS
# T4 sequence (P12392 21-495): as above
# T4 sequence (P09483 31-630): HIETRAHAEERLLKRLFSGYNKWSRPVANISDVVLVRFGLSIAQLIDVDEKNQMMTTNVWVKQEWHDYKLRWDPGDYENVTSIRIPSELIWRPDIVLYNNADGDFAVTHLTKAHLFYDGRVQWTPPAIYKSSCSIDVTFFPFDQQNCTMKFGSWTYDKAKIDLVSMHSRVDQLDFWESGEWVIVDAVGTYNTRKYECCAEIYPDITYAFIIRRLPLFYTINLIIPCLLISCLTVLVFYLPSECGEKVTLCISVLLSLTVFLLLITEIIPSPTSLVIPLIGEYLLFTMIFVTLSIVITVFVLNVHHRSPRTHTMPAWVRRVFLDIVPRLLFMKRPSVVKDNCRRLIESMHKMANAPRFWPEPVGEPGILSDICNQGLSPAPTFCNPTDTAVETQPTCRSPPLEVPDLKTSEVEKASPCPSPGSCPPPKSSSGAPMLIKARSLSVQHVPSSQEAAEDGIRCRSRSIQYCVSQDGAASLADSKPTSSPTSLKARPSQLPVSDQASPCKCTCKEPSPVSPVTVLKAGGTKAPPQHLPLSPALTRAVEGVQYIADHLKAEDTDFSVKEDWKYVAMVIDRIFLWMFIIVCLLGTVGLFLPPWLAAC
# T3 sequence (P12389 28-511): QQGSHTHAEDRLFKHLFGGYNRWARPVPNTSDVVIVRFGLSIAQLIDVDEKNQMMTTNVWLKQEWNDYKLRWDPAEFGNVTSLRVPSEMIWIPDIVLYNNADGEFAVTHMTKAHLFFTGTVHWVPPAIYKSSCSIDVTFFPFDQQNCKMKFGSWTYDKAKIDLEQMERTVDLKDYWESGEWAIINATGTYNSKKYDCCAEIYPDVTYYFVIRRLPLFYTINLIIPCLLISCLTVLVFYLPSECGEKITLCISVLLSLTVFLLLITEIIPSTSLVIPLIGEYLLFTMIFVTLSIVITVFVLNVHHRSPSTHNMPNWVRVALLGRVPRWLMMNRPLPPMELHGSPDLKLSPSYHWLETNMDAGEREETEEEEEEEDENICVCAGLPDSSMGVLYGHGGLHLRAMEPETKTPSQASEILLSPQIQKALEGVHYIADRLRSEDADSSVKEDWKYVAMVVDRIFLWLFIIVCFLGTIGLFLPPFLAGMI
# T3 sequence (P12392 21-495): as the sequence (P12392 21-495) above
# T7 sequence (P09483 31-630): as the sequence (P09483 31-630) above
# T7 sequence (P12390 25-500): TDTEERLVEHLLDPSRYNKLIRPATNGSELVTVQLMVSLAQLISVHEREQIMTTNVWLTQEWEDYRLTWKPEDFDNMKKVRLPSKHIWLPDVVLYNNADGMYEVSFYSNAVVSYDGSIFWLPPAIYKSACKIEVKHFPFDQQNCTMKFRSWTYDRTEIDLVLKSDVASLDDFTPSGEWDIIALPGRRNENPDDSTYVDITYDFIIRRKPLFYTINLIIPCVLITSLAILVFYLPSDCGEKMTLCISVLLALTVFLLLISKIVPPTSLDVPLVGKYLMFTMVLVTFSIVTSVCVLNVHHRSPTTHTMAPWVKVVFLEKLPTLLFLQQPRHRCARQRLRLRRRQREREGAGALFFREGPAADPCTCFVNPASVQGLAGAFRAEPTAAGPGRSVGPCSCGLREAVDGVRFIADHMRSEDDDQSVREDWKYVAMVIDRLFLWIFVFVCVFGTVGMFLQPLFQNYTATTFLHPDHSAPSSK
# T6 sequence (P12390 25-500): as above
# T6 sequence (P12389 28-511): as the sequence (P12389 28-511) above
# T1 sequence (P12390 25-500): as the sequence (P12390 25-500) above
# T1 sequence (P04757 26-499): as the sequence (P04757 26-499) above
# T2 sequence (P12390 25-500): as the sequence (P12390 25-500) above
# T2 sequence (P09483 31-630): as the sequence (P09483 31-630) above
SMILES,Ki (α3β2 nAChR subtype; [6]) [nM],Ki (α4β2 nAChR subtype; [7]) [nM],Ki (α2β4 nAChR subtype; [8]) [nM],Ki (α4β4 nAChR subtype; [9]) [nM],Ki (α3β4 nAChR subtype; [10]) [nM],Ki (α2β2 nAChR subtype; [11]) [nM],"Ki [1, 12] [nM]",further results
"CCCCC#Cc1cncc(OC[C@@H]2CCCN2C)c1 [Ligand 12, 5-(1-Hexynyl)-3-(1-methyl-2(S)-pyrrolidinylmethoxy)pyridine]",–,–,–,–,–,–,–,"Ki (α3β2 nAChR subtype; Table 5, rat nAChR subtypes, read-out: Ki α3β2): 20.3 nM; Ki (α4β2 nAChR subtype; Table 5, rat nAChR subtypes, read-out: Ki α4β2): 2.61 nM; Ki (α2β4 nAChR subtype; [2]): 1720 nM; Ki (α4β4 nAChR subtype; [3]): 1410 nM; Ki (α3β4 nAChR subtype; [4]): 9560 nM; Ki (α2β2 nAChR subtype; [5]): 13.4 nM; Ki ([1]; Table 5, *Rat forebrain, mainly α4β2, read-out: Ki α4β2*): 6.81 nM"
"FC1CC2CC(c3ccc(Cl)nc3)C1N2 (stereo not drawn) [Ligand 11, 2-exo-(2-Chloro-5-pyridyl)-6-fluoro-7-azabicyclo[2.2.1]heptane]",0.149,0.328,0.481,0.172,2.48,0.218,0.668,–
CCCCCC#Cc1ccc(C2CC3CCC2N3)cn1 (stereo not drawn) [Ligand 34],19.8,67.7,67.4,61.8,95.4,16.9,52,–
"O[C@H]1C[C@H]2C[C@H](c3ccc(Cl)nc3)[C@@H]1N2 (relative stereo) [Ligand 9, 2-exo-(2-Chloro-5-pyridyl)-6-endo-hydroxyl-7-azabicyclo[2.2.1]heptane]",1.36,0.916,5.85,5.57,27.3,1.53,4.11,–
Clc1ccc2c(n1)CCC21CC2CCC1N2 (stereo not drawn) [Ligand 58b],3660,5050,7090,–,14900,2460,12100,Ki (α3β2 nAChR subtype; [13]): 4070 nM; Ki (α4β2 nAChR subtype; [14]): 6990 nM; Ki (α2β4 nAChR subtype; [15]): 7180 nM; Ki (α4β4 nAChR subtype; [16]): 9460 nM; Ki (α4β4 nAChR subtype; [3]): 9560 nM; Ki (α3β4 nAChR subtype; [17]): 13800 nM
Clc1ccc2c(n1)CCC1C3CCC(N3)C21 (stereo not drawn) [Ligand 37b],541,210,–,39.8,–,–,576,Ki (α3β2 nAChR subtype; [13]): 530 nM; Ki (α4β2 nAChR subtype; [14]): 295 nM; Ki (α2β4 nAChR subtype; [15]): 32 nM; Ki (α2β4 nAChR subtype; [2]): 32.2 nM; Ki (α4β4 nAChR subtype; [16]): 41 nM; Ki (α3β4 nAChR subtype; [17]): 201 nM; Ki (α3β4 nAChR subtype; [4]): 201 nM; Ki (α2β2 nAChR subtype; [18]): 59 nM; Ki (α2β2 nAChR subtype; [5]): 59.4 nM
CN1CCC[C@H]1COc1cncc(C#CCNC(=O)OC(C)(C)C)c1 [Ligand 13],–,–,–,–,–,–,–,Ki (α3β2 nAChR subtype): 7.27 nM; Ki (α4β2 nAChR subtype): 2.07 nM; Ki (α2β4 nAChR subtype): 8240 nM; Ki (α4β4 nAChR subtype): 8280 nM; Ki (α3β4 nAChR subtype): 59900 nM; Ki (α2β2 nAChR subtype): 1.19 nM; Ki [1]: 3.71 nM
"OCCCCC#Cc1cncc(OC[C@@H]2CCCN2)c1 [Ligand 27, 5-(6-Hydroxy-1-hexynyl)-3-(2(S)-pyrrolidinylmethoxy)pyridine]",2.69,0.665,835,778,16100,1.51,1.15,–
"OC1C2CCC(N2)C1c1ccc(Cl)nc1 (single isomer, unassigned) [Ligand 3, 2-exo-(2-Chloro-5-pyridyl)-3-endo-hydroxyl-7-azabicyclo[2.2.1]heptane]",7.31,2.92,15.3,11.2,39.1,2.49,4.79,–
CN1CCC[C@H]1COc1cncc(C#CCCCCCCCCO)c1 [Ligand 17],–,–,–,–,–,–,–,"Ki (α3β2 nAChR subtype; [19]): 52.1 nM; Ki (α4β2 nAChR subtype; [20]): 6.5 nM; Ki (α2β4 nAChR subtype; [21]): 7800 nM; Ki (α4β4 nAChR subtype; [22]): 3560 nM; Ki (α3β4 nAChR subtype; [23]): 62700 nM; Ki (α2β2 nAChR subtype; [24]): 26.8 nM; Ki [1, 25]: 21.7 nM"
"OC1CC2CC(c3ccc(Cl)nc3)C1N2 (stereo not drawn) [Ligand 8, 2-exo-(2-Chloro-5-pyridyl)-6-exo-hydroxyl-7-azabicyclo[2.2.1]heptane]",8.88,12.6,39.7,45.6,144,6.3,22.9,–
C#Cc1cncc(OC[C@@H]2CCCN2C)c1 [Ligand 18],–,–,–,–,–,–,–,"Ki (α3β2 nAChR subtype; [19]): 10.7 nM; Ki (α4β2 nAChR subtype; [20]): 1.02 nM; Ki (α2β4 nAChR subtype; [21]): 434 nM; Ki (α4β4 nAChR subtype; [22]): 473 nM; Ki (α3β4 nAChR subtype; [23]): 3080 nM; Ki (α2β2 nAChR subtype; [24]): 0.75 nM; Ki [1, 25]: 3.65 nM"
O=c1cccc2n1C[C@H]1C[C@@H]2CN(CCCCl)C1 [ZW-16],–,–,–,–,–,–,–,Ki (α3β2 nAChR subtype): > 1000 nM; Ki (α4β2 nAChR subtype): 571 nM; Ki (α2β4 nAChR subtype): 2630 nM; Ki (α4β4 nAChR subtype): 732 nM; Ki (α3β4 nAChR subtype): > 10000 nM; Ki (α2β2 nAChR subtype): 1340 nM; Ki [1]: 1500 nM
Clc1cc2c(cn1)C1(CC2)CC2CCC1N2 (stereo not drawn) [Ligand 58a],16000,28000,11600,10200,36700,12800,54400,Ki (α3β2 nAChR subtype; [13]): 19700 nM; Ki (α4β2 nAChR subtype; [14]): 29200 nM; Ki (α2β4 nAChR subtype; [15]): 10700 nM; Ki (α4β4 nAChR subtype; [16]): 10500 nM; Ki (α3β4 nAChR subtype; [17]): 14900 nM; Ki (α2β2 nAChR subtype; [18]): 12600 nM
"FCCCCC#Cc1cncc(OC[C@@H]2CCN2)c1 [Ligand 41, 5-(6-Fluoro-1-hexynyl)-3-(2(S)-azetidinylmethoxy)pyridine]",0.635,0.201,197,118,5490,0.796,0.362,–
"CN1CCC[C@H]1COc1cncc(C#CCNC(=O)OC(C)(C)C)c1 [Ligand 13, 5-(3-tert-Butoxycarbonylamino-1-propynyl)-3-(1-methyl-2(S)-pyrrolidinylmethoxy)pyridine]",–,–,–,–,–,–,–,"Ki (α3β2 nAChR subtype; read-out: Ki α3β2, Table 5, rat nAChR subtypes): 7.27 nM; Ki (α4β2 nAChR subtype; read-out: Ki α4β2, Table 5, rat nAChR subtypes): 2.07 nM; Ki (α2β4 nAChR subtype; read-out: Ki α2β4, Table 5, rat nAChR subtypes): 8240 nM; Ki (α4β4 nAChR subtype; read-out: Ki α4β4, Table 5, rat nAChR subtypes): 8280 nM; Ki (α3β4 nAChR subtype; read-out: Ki α3β4, Table 5, rat nAChR subtypes): 59900 nM; Ki (α2β2 nAChR subtype; read-out: Ki α2β2, Table 5, rat nAChR subtypes): 1.19 nM; Ki ([1]; read-out: Ki α4β2*, Table 5, *Rat forebrain, mainly α4β2): 3.71 nM"
